Measured values as given in ChEMBL document CHEMBL1201862, “PubChem BioAssay data set” (2004).
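Cultured in 96-well plates, cells were exposed to test compound for 48 hours across five concentrations. Abbreviation: GI50, concentration required for 50% inhibition of growth.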 Activity calls are given as the source filed them. Cut-off read from the data, not from the text of the source: active = GI50 up to about 1.1 µM and inactive = higher.

Experiments:
Test in all cases: inhibition of tumour cell growth, NCI panel, 48 h
DMS-114 = system: DMS-114
HCC 2998 = system: HCC 2998
HOP-92 = system: HOP-92
IGROV-1 = system: IGROV-1
K562 = system: K562
KM12 = system: KM12
LOX IMVI = system: LOX IMVI
LXFL 529 = system: LXFL 529
MOLT-4 = system: MOLT-4
OVCAR-3 = system: OVCAR-3
RPMI-8226 = system: RPMI-8226
SNB-75 = system: SNB-75
SW-620 = system: SW-620
TK-10 = system: TK-10
UACC-257 = system: UACC-257
HL-60 = system: HL-60

CCN(CC)CC(C)(C)C(=O)/C=C/c1cccc(/C=C/C(=O)C(C)(C)CN(CC)CC)c1
GI50 (DMS-114): 0.307 µM (active) | GI50 (HCC 2998): 1.22 µM (inactive) | GI50 (HOP-92): 0.504 µM (active) | GI50 (IGROV-1): 1.02 µM (active) | GI50 (K562): 0.431 µM (active) | GI50 (KM12): 0.471 µM (active) | GI50 (LOX IMVI): 0.184 µM (active) | GI50 (LXFL 529): 0.331 µM (active) | GI50 (MOLT-4): 0.27 µM (active) | GI50 (OVCAR-3): 1.11 µM (active) | GI50 (RPMI-8226): 2.06 µM (inactive) | GI50 (SNB-75): 0.176 µM (active) | GI50 (SW-620): 0.187 µM (active) | GI50 (TK-10): 1.14 µM (inactive) | GI50 (UACC-257): 1.22 µM (inactive)

Cc1cc2c(c(C#N)c1C)NC(=O)CCC2=O
GI50 (DMS-114): > 100 µM (inactive) | GI50 (HCC 2998): > 100 µM (inactive) | GI50 (HL-60): > 100 µM (inactive) | GI50 (IGROV-1): > 100 µM (inactive) | GI50 (K562): > 100 µM (inactive) | GI50 (KM12): > 100 µM (inactive) | GI50 (LXFL 529): > 100 µM (inactive) | GI50 (MOLT-4): > 100 µM (inactive) | GI50 (OVCAR-3): > 100 µM (inactive) | GI50 (RPMI-8226): > 100 µM (inactive) | GI50 (SNB-75): > 100 µM (inactive) | GI50 (SW-620): > 100 µM (inactive) | GI50 (UACC-257): > 100 µM (inactive)

COc1ccc(-c2cc(-c3ccco3)c(C#N)c(=O)n2C2OC(OC(=O)c3ccccc3)C(OC(=O)c3ccccc3)C2OC(=O)c2ccccc2)cc1 (stereo not drawn)
GI50 (DMS-114): > 100 µM (inactive) | GI50 (HCC 2998): > 100 µM (inactive) | GI50 (HOP-92): 23.9 µM (inactive) | GI50 (IGROV-1): > 100 µM (inactive) | GI50 (K562): > 100 µM (inactive) | GI50 (KM12): > 100 µM (inactive) | GI50 (LOX IMVI): > 100 µM (inactive) | GI50 (LXFL 529): > 100 µM (inactive) | GI50 (MOLT-4): > 100 µM (inactive) | GI50 (OVCAR-3): 58.6 µM (inactive) | GI50 (RPMI-8226): > 100 µM (inactive) | GI50 (SNB-75): 72.1 µM (inactive) | GI50 (SW-620): > 100 µM (inactive) | GI50 (TK-10): 13.6 µM (inactive) | GI50 (UACC-257): > 100 µM (inactive)

C=CC1(C(=O)O)CCC(C(C)(C)C)CC1 (stereo not drawn)
GI50 (DMS-114): > 100 µM (inactive) | GI50 (HCC 2998): > 100 µM (inactive) | GI50 (HL-60): > 100 µM (inactive) | GI50 (HOP-92): > 100 µM (inactive) | GI50 (IGROV-1): > 100 µM (inactive) | GI50 (K562): > 100 µM (inactive) | GI50 (KM12): > 100 µM (inactive) | GI50 (LXFL 529): > 100 µM (inactive) | GI50 (MOLT-4): > 100 µM (inactive) | GI50 (OVCAR-3): > 100 µM (inactive) | GI50 (RPMI-8226): > 100 µM (inactive) | GI50 (SNB-75): > 100 µM (inactive) | GI50 (SW-620): > 100 µM (inactive) | GI50 (TK-10): > 100 µM (inactive) | GI50 (UACC-257): > 100 µM (inactive)

CC(=O)OCC12CC(CC1OC(C)=O)c1ccccc12 (stereo not drawn)
GI50 (DMS-114): > 100 µM (inactive) | GI50 (HCC 2998): > 100 µM (inactive) | GI50 (HL-60): > 100 µM (inactive) | GI50 (HOP-92): > 100 µM (inactive) | GI50 (IGROV-1): > 100 µM (inactive) | GI50 (K562): > 100 µM (inactive) | GI50 (LOX IMVI): > 100 µM (inactive) | GI50 (LXFL 529): > 100 µM (inactive) | GI50 (MOLT-4): > 100 µM (inactive) | GI50 (OVCAR-3): > 100 µM (inactive) | GI50 (RPMI-8226): > 100 µM (inactive) | GI50 (SW-620): > 100 µM (inactive) | GI50 (TK-10): > 100 µM (inactive) | GI50 (UACC-257): > 100 µM (inactive)

C[C@@H]1C[C@@H]2C(=O)N(c3ccccc3)C(=O)[C@@H]2c2[nH]c3ccc(Br)cc3c21
GI50 (DMS-114): 53 µM (inactive) | GI50 (HCC 2998): 51.1 µM (inactive) | GI50 (HL-60): 26.8 µM (inactive) | GI50 (HOP-92): 27.6 µM (inactive) | GI50 (IGROV-1): 87.1 µM (inactive) | GI50 (K562): 49.1 µM (inactive) | GI50 (KM12): 25.2 µM (inactive) | GI50 (LOX IMVI): 96.8 µM (inactive) | GI50 (LXFL 529): 37.6 µM (inactive) | GI50 (MOLT-4): 25 µM (inactive) | GI50 (OVCAR-3): 23.7 µM (inactive) | GI50 (SNB-75): 20.2 µM (inactive) | GI50 (SW-620): 35.5 µM (inactive) | GI50 (TK-10): 68.9 µM (inactive) | GI50 (UACC-257): > 100 µM (inactive)

COc1ccccc1/C=N/C12CC3CC(CC(C3)C1)C2
GI50 (DMS-114): > 10 µM (inactive) | GI50 (HCC 2998): > 100 µM (inactive) | GI50 (HL-60): 73.6 µM (inactive) | GI50 (HOP-92): > 100 µM (inactive) | GI50 (K562): 32.4 µM (inactive) | GI50 (KM12): > 100 µM (inactive) | GI50 (LOX IMVI): > 100 µM (inactive) | GI50 (MOLT-4): > 100 µM (inactive) | GI50 (OVCAR-3): > 100 µM (inactive) | GI50 (RPMI-8226): > 100 µM (inactive) | GI50 (SNB-75): 86.9 µM (inactive) | GI50 (SW-620): > 100 µM (inactive) | GI50 (TK-10): > 100 µM (inactive) | GI50 (UACC-257): > 100 µM (inactive)

C[C@@H]1CC[C@@]2(C)OC(c3ccccc3)[C@H](CO)N2C1=O (stereo partly drawn)
GI50 (DMS-114): > 100 µM (inactive) | GI50 (HOP-92): > 100 µM (inactive) | GI50 (IGROV-1): > 100 µM (inactive) | GI50 (K562): > 100 µM (inactive) | GI50 (KM12): > 100 µM (inactive) | GI50 (LOX IMVI): > 100 µM (inactive) | GI50 (OVCAR-3): > 100 µM (inactive) | GI50 (RPMI-8226): > 100 µM (inactive) | GI50 (SNB-75): > 100 µM (inactive) | GI50 (SW-620): > 100 µM (inactive) | GI50 (TK-10): > 100 µM (inactive) | GI50 (UACC-257): > 100 µM (inactive)

CCOC(=O)C(Cc1cn(S(=O)(=O)c2ccccc2)c2ccccc12)(NC(C)=O)C(=O)OCC
GI50 (DMS-114): 23.9 µM (inactive) | GI50 (HCC 2998): 34 µM (inactive) | GI50 (HL-60): 16.5 µM (inactive) | GI50 (HOP-92): 19.8 µM (inactive) | GI50 (IGROV-1): 46.7 µM (inactive) | GI50 (K562): 29 µM (inactive) | GI50 (KM12): 29.4 µM (inactive) | GI50 (LXFL 529): 27.7 µM (inactive) | GI50 (MOLT-4): 19 µM (inactive) | GI50 (OVCAR-3): 34 µM (inactive) | GI50 (RPMI-8226): 13.1 µM (inactive) | GI50 (SNB-75): 8.18 µM (inactive) | GI50 (SW-620): 54.2 µM (inactive) | GI50 (TK-10): 65.5 µM (inactive) | GI50 (UACC-257): 24.5 µM (inactive)
